# Where two headings read alike, the source gives them in different places.
# What was measured:
# [1] = tested on: rat model of hyperalgesia induced by carragenine; experiment: Paw pressure test, hyperalgesia induced by carragenine; format: in vivo
# Experimental: (§1) Male Swiss albino mice (23-25 g) and Sprague Dawley or Wistar rats (150-200 g) were used. The animals were fed a standard laboratory diet and tap water ad libitum and kept at 23±1° C. with a 12 h light/dark cycle, light on at 7 a.m.
# The nociceptive threshold in the rat was determined with an analgesimeter, according to the method described by Leighton et al, G. E.; Br. J. Pharmacol. 1988, 93, 553-560. Threshold pressure was measured before and 30, 60 and 120 min after treatment. An arbitrary cut-off value of 250 g was adopted. In order to induce an inflammatory process in the rat paw carrageenan (0.1 ml, 1%) was administered i.p. 4 h before test.
# [2] = tested on: rat model of edema induced by carragenine; experiment: Carrageenan-induced paw edema; format: in vivo; conditions: 1 h, 60 min, read-out: Edema inhibition 60 min, MPE
# Experimental: as §1
# Rats paw volumes were measured using a plethysmometer. Rats received the investigated compounds 4 hours after a 0.1-ml injection of 1.0% carrageenan in the right hind paw. Five hours after the injection of carrageenan (i.e. 1 hour after the administration of the investigated compound), the paw volume of the right hind paw was measured and compared with saline/carrageenan-treated controls. Results are reported as maximum percent effect (MPE), see below for detailed explanation.
# [3] = tested on: rat model of hyperalgesia induced by Zymosan; experiment: Zymosan-induced hyperalgesia (Randal-Selitto); format: in vivo; conditions: oral
# Experimental: as §1
# (§2) The interplantar injection of Zymosan-induced mechanical hyperalgesia may be used as a model of inflammatory pain (Meller, Neuropharmacology, 1994, 33, 1471-1478). In this model, typically a male Sprague-Dawely or Wistar rat (200-250 g) receives an interplantar injection of 4 mg/100 μl zymosan into one hind paw. A marked inflammation occurs in this hind paw. Drugs are administered orally for evaluation of efficacy, 30 min. before the inflammatory insult. The hyperalgesia induced by zymosan administration was evaluated using the Randal-Selitto method (Arch. Int. Pharmacodyn., 1957, 111, 409). The quantitation of the analgesic effect is achieved by an analgesimeter, which consist in applying to the inflamed paw an increasing weight (from 130-140 g up to 500 g). The difference in the mechanical pain threshold between the basal value (generally 230-250 g) and the one tolerated by the animals treated with the drug, determined 4 hours after the inflammatory challenge, is defined as mechanical hyperalgesia.
# Mechanical hyperalgesia is expressed for the compounds of the invention as maximum percent effect (MPE) which represents the difference (%) in pain threshold between the animals treated with the drug and the controls that received only the vehicle.
# Results are reported as MPE (reduction of the nociceptive effect, due to paw loading with increasing weight, in comparison to controls). 100% MPE means that the animal treated with the compound and Zymosan can tolerate the same stimulus (weight) as the control animals which have not received Zymosan treatment. MPE higher than 100% mean that the animal treated with the compound and Zymosan can tolerate stimuli (weight) higher than the control animals, which has not received Zymosan treatment (hypoalgesia).
# [4] = tested on: rat model of edema induced by Zymosan; experiment: Zymosan-induced paw edema; format: in vivo; conditions: oral
# Experimental: as §1, §2
# In vivo anti-inflammatory effect exerted by the compounds of the invention can be assessed in the same Zymosan induced inflammation test described above, by measuring the volume of the oedema induced by the inflammatory agent. The oedema was evaluated as the increase in the volume of the Zymosan injected paw within a time of 0-2 hrs. The measurements of the variation of the oedema volume of the paw were recorded using hydroplethysmometer. Results are expressed as MPE, maximum percent effect, that in this case represents the reduction (%) in the oedema of treated animals in comparison to controls (animals treated with Zymosan, which received only the vehicle).
# [5] = study whether Celecoxib could treat AD; cited from earlier work
# low-density lipoprotein = conditions: cited from earlier work
# COX-1 = biological target: T1, COX-1 (Mus musculus, UniProt P22437); conditions: Table 1, reported by reference; cited from earlier work
# T1 construct: endogenous in cells; host or cells: J774 murine monocyte/macrophage cell line
# T1 sequence (P22437 27-602): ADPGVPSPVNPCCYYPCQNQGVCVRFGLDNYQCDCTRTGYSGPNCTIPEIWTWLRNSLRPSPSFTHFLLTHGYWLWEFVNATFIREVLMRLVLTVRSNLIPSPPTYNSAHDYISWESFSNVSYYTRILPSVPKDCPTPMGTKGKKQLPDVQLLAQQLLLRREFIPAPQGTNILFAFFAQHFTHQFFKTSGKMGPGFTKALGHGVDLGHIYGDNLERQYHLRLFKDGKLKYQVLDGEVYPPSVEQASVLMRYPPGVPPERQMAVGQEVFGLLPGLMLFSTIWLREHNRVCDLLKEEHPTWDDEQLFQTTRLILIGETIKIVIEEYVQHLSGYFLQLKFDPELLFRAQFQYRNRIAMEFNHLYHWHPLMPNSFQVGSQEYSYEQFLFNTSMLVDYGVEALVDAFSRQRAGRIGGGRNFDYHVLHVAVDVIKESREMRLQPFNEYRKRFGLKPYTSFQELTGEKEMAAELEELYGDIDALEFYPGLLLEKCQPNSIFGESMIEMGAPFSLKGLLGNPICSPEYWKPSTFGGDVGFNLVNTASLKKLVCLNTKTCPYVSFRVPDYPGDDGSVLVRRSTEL
# COX-2 [6] = biological target: T2, COX-2 (Mus musculus, UniProt Q05769); conditions: Table 1, reported by reference; cited from earlier work
# T2 construct: lipopolysaccharide (LPS, 10 μg/mL) to induce COX-2; endogenous in cells; host or cells: J774 murine monocyte/macrophage cell line, LPS-stimulated
# T2 sequence (Q05769 18-604): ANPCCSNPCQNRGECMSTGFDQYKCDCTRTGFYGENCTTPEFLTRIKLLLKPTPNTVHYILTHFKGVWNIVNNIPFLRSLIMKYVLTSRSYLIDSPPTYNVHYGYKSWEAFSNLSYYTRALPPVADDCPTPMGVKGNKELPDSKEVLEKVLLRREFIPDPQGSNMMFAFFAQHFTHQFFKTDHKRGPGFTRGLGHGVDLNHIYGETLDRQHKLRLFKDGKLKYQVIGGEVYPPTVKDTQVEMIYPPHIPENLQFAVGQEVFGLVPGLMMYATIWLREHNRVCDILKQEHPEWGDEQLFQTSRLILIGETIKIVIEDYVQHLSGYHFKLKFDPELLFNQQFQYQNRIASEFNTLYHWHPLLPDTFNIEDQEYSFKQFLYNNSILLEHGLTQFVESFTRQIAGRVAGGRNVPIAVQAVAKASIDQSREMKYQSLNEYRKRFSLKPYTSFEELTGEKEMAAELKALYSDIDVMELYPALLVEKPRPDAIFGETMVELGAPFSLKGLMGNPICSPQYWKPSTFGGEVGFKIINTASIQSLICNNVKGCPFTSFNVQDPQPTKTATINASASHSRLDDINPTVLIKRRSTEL
# COX-2 [7] = biological target: T2, COX-2; experiment: Assessment of COX-2 activity in LPS-stimulated J774 cells (PGE2 radioimmunoassay); format: cell-based, murine; conditions: for COX-1/COX-2 Selectivity Index (IC50 ratio): Table 2, Formula Ia
# Experimental: Cells were stimulated for 24 h with E. coli lipopolysaccharide (LPS, 10 μg/mL) to induce COX-2, in the absence or presence of test compounds, at the concentrations previously reported. The supernatants were collected for the measurement of PGE2 by radioimmunoassay.
# Analysis. Throughout the time the experiments lasted, triplicate wells were used for the various conditions of treatment. Results are expressed as the mean, for 3 experiments, of the % inhibition of PGE2 production by test compounds with respect to control samples. Data fit was obtained using the sigmoidal dose-response equation (variable slope). The IC50 were calculated by GraphPad Instat program (GraphPad software).
# [8] = tested on: mouse abdominal constriction (writhing); experiment: Mouse abdominal constriction test (acetic acid 0.6%), writhing test; format: in vivo; conditions: mice, 30 min before test, control 38.1 ± 2.6
# Experimental: as §1
# Mice were injected i.p. with a 0.6% solution of acetic acid (10 ml/kg), according to Koster et al. Fed. Proc., 1959, 18, 412. The number of stretching movements was counted for 10 min, starting 5 min after acetic acid injection.
# [9] = VIGOR trial; cited from earlier work
# glaucomatous rabbits = conditions: not COX-2 dependent effect; cited from earlier work
# [10] = 0.5 h, 30 min, read-out: Analgesia 30 min MPE
# [11] = 1 h, 60 min, read-out: Analgesia 60 min MPE
melting point,COX-1/COX-2 Selectivity Index (IC50 ratio) (COX-2 [7]),SMILES,"inhibition in vivo at 20 mg/kg [1, 10]","inhibition in vivo at 20 mg/kg [1, 11]",inhibition in vivo at 20 mg/kg [2],Number of writhes ([8]; 20 mg/Kg s.c.),further results
–,–,Cc1ccc(-c2cc(C(F)(F)F)nn2-c2ccc(S(N)(=O)=O)cc2)cc1 [Celecoxib],73%,81%,95%,–,Analgesia 0-2 hrs MPE ([3]; 3 mg/Kg): 30%; Analgesia 0-6 hrs MPE ([3]; 3 mg/Kg): 35%; Edema 0-6 hrs MPE ([4]; 3 mg/Kg): 24.8%; incidence of heart attack in the treated group in comparison to placebo [5]: four times higher; susceptibility of low-density lipoprotein to oxidative modifications (low-density lipoprotein): had no effect
–,–,"CCOC(=O)Cc1cc(-c2ccc(S(C)(=O)=O)cc2)n(-c2ccccc2)c1C [Compound 1b, Ethyl 2-[2-methyl-5-(4-methylsulphonyl)phenyl-1-phenyl-1H-pyrrol-3-yl]acetate, reference compound]",18%,30%,10%,–,IC50 (COX-1): > 100 µM; COX-1/COX-2 Selectivity Index (IC50 ratio) (COX-2 [6]): >2500
–,–,"CCOC(=O)Cc1cc(-c2ccc(S(C)(=O)=O)cc2)n(-c2ccc(F)c(F)c2)c1C [Compound 5b, Ethyl 2-[1-(3,4-difluoro)phenyl-2-methyl-5-(4-methylsulphonyl)phenyl-1H-pyrrol-3-yl]acetate, reference compound]",30%,36%,30%,–,selectivity (COX-2 [7]): > 5000; IC50 (COX-2 [7]; read-out: in vitro COX-2 inhibitory potency IC50): 0.02 µM; Analgesia 0-2 hrs MPE ([3]; 4 mg/Kg): 9%; Analgesia 0-6 hrs MPE ([3]; 4 mg/Kg): 12%; Edema 0-2 hrs MPE ([4]; 4 mg/Kg): 8%; Edema 0-6 hrs MPE ([4]; 4 mg/Kg): 6%
160 °C,–,"Cc1c(CC(=O)OC(C)C)cc(-c2ccc(S(C)(=O)=O)cc2)n1-c1ccccc1 [Example 1, Isopropyl[2-methyl-5-(4-methylsulphonyl)phenyl-1-phenyl-1H-pyrrol-3-yl]acetate]",–,–,–,–,"inhibition in vivo at 5 mg/kg [1, 10]: 80%; inhibition in vivo at 5 mg/kg [1, 11]: 60%; inhibition in vivo at 5 mg/kg ([2]; 5 mg/Kg): 100%; Analgesia 0-2 hrs MPE ([3]; 3 mg/Kg): 75%; Analgesia 0-6 hrs MPE ([3]; 3 mg/Kg): 70%; Edema 0-2 hrs MPE ([4]; 3 mg/Kg): 20%; Edema 0-6 hrs MPE ([4]; 3 mg/Kg): 15%; Number of writhes ([8]; 5 mg/Kg s.c.): 28.5 ± 3.3"
143 °C,>4700,"Cc1c(CC(=O)OC(C)C)cc(-c2ccc(S(C)(=O)=O)cc2)n1-c1ccc(F)c(F)c1 [Example 2, Isopropyl[1-(3,4-difluoro)phenyl-2-methyl-5-(4-methylsulphonyl)phenyl-1H-pyrrol-3-yl]acetate]",100%,70%,91%,21.5 ± 3.9,–
138 °C,>4500,"COc1ccc(-n2c(-c3ccc(S(C)(=O)=O)cc3)cc(CC(=O)OC(C)C)c2C)cc1 [Example 3, Isopropyl[1-(4-methoxy)phenyl-2-methyl-5-(4-methylsulphonyl)phenyl-1H-pyrrol-3-yl]acetate]",67%,90%,77%,18.5 ± 3.5,–
100 °C,>2300,"Cc1c(CC(=O)OC(C)C)cc(-c2ccc(S(C)(=O)=O)cc2)n1-c1cccc(F)c1 [Example 4, Isopropyl[1-(3-fluoro)phenyl-2-methyl-5-(4-methylsulphonyl)phenyl-1H-pyrrol-3-yl]acetate]",84%,80%,87%,17.7 ± 2.9,–
112 °C,>3300,"CCCCOC(=O)Cc1cc(-c2ccc(S(C)(=O)=O)cc2)n(-c2ccc(F)c(F)c2)c1C [Example 5, n-Butyl[1-(3,4-difluoro)phenyl-2-methyl-5-(4-methylsulphonyl)phenyl-1H-pyrrol-3-yl]acetate]",76%,100%,74%,13.7 ± 4.0,–
–,>800,CS(=O)(=O)c1ccc(C2=C(c3ccccc3)C(=O)OC2)cc1 [Rofecoxib],–,–,–,–,"incidence of acute myocardial infarction, Rofecoxib arm compared with the Naproxen arm [9]: five-fold increase; effect on intraocular pressure (glaucomatous rabbits): had no effect; susceptibility of low-density lipoprotein to oxidative modifications (low-density lipoprotein): increases susceptibility"
–,–,Cc1onc(-c2ccccc2)c1-c1ccc(S(N)(=O)=O)cc1 [Valdecoxib],–,–,–,–,effect on intraocular pressure (glaucomatous rabbits): reduce intraocular pressure
